Pest or weed control and plant injury data for one compound are collected here from patent US12077503B2, “Substituted cyclic amides and their use as herbicides” (FMC CORPORATION, priority 2015, dated 2024).

SMILES strings stand for the structures.

Holding throughout (format): in vivo
Test [1] relates to ryegrass, Italian (Italian ryegrass, Lolium multiflorum). The test is described as follows: Test A preemergence. To be noted: Lolium multiflorum, pre-emergence, 240 h. The gist of the method:
(§1)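 Seeded soil received test chemicals as a preemergence directed spray, and seedlings at one to two leaves, 2–10 cm tall, received them postemergence, in a non-phytotoxic, surfactant-containing solvent mixture. Pots were held in a greenhouse for approximately 10 d, then rated for injury from 0, no effect, to 100, complete control.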

Test [2] deals with barnyardgrass (Echinochloa crus-galli). The test is described as follows: Test A preemergence. The note with it: Echinochloa crus-galli, pre-emergence, 240 h. The gist of the method:
as §1

The test system of test [3] is ragweed (common ragweed, Ambrosia elatior). Put plainly: Test A preemergence. To be noted: Ambrosia artemisiifolia, pre-emergence, 240 h. The gist of the method:
as §1

The test system of test [4] is giant foxtail (Setaria faberii). Put plainly: Test A preemergence. The note with it: Setaria faberi, pre-emergence, 240 h. The gist of the method: as §1
Test [5] concerns Kochia (Kochia scoparia). The test is described as follows: Test A preemergence. To be noted: Bassia scoparia, pre-emergence, 240 h. The gist of the method:
as §1

For test [6], the system named is pigweed (Amaranthus retroflexus). Put plainly: Test A preemergence. To be noted: Amaranthus retroflexus, pre-emergence, 240 h.
The subject of the next test is corn (Zea mays). Put plainly: Test A postemergence. The note with it: Zea mays, post-emergence, 240 h, 125 g ai/ha, postemergence, visual injury rating after approximately 10 d; read-out: Corn plant response rating (0 to 100 scale, 0 no effect, 100 complete control). The gist of the method: as §1
For test [7], the system named is Galium (catchweed bedstraw, Galium aparine). Put plainly: Test A postemergence. The note with it: Galium, post-emergence, 240 h, 125 g ai/ha, postemergence, visual injury rating after approximately 10 d; read-out: Galium plant response rating (0 to 100 scale, 0 no effect, 100 complete control). The gist of the method:
as §1

Test [8] concerns ryegrass, Italian (Italian ryegrass, Lolium multiflorum). Put plainly: Test A postemergence. To be noted: Lolium multiflorum, post-emergence, 240 h, 125 g ai/ha, postemergence, visual injury rating after approximately 10 d; read-out: Ryegrass, Italian plant response rating (0 to 100 scale, 0 no effect, 100 complete control). The procedure, abridged: as §1
Test [9] relates to barnyardgrass (Echinochloa crus-galli). The test is described as follows: Test A postemergence. To be noted: Echinochloa crus-galli, post-emergence, 240 h, 125 g ai/ha, postemergence, visual injury rating after approximately 10 d; read-out: Barnyardgrass plant response rating (0 to 100 scale, 0 no effect, 100 complete control). The procedure, abridged: as §1
Test [10] concerns wheat (Triticum aestivum). Put plainly: Test A postemergence. To be noted: Triticum aestivum, post-emergence, 240 h, 125 g ai/ha, postemergence, visual injury rating after approximately 10 d; read-out: Wheat plant response rating (0 to 100 scale, 0 no effect, 100 complete control). The gist of the method: as §1
For test [11], the system named is ragweed (common ragweed, Ambrosia elatior). Put plainly: Test A postemergence. The note with it: Ambrosia artemisiifolia, post-emergence, 240 h, 125 g ai/ha, postemergence, visual injury rating after approximately 10 d; read-out: Ragweed plant response rating (0 to 100 scale, 0 no effect, 100 complete control). The gist of the method:
as §1

The test system of test [12] is blackgrass (Alopecurus myosuroides). The test is described as follows: Test A postemergence. The note with it: Alopecurus myosuroides, post-emergence, 240 h, 125 g ai/ha, postemergence, visual injury rating after approximately 10 d; read-out: Blackgrass plant response rating (0 to 100 scale, 0 no effect, 100 complete control). The gist of the method:
as §1

The subject of test [13] is giant foxtail (Setaria faberii). Put plainly: Test A postemergence. The note with it: Setaria faberi, post-emergence, 240 h, 125 g ai/ha, postemergence, visual injury rating after approximately 10 d; read-out: Foxtail, Giant plant response rating (0 to 100 scale, 0 no effect, 100 complete control). The procedure, abridged: as §1
For test [14], the system named is Kochia (Kochia scoparia). Put plainly: Test A postemergence. The note with it: Bassia scoparia, post-emergence, 240 h, 125 g ai/ha, postemergence, visual injury rating after approximately 10 d; read-out: Kochia plant response rating (0 to 100 scale, 0 no effect, 100 complete control). The procedure, abridged:
as §1

Regarding `CN1C[C@H](c2cccc(C3CC3)c2)[C@@H](C(=O)Nc2cccc(F)c2F)C1=O` [Compound 816], the pest or weed control at 125 g/ha was 70% in test [1] (125 g ai/ha, preemergence, 0 to 100 scale where 0 is no effect and 100 is complete control, read-out: Ryegrass, Italian plant response rating); 90% in test [2] (125 g ai/ha, preemergence, 0 to 100 scale where 0 is no effect and 100 is complete control, read-out: Barnyardgrass plant response rating); 20% in test [3] (125 g ai/ha, preemergence, 0 to 100 scale where 0 is no effect and 100 is complete control, read-out: Ragweed plant response rating); 90% in [4] (125 g ai/ha, preemergence, 0 to 100 scale where 0 is no effect and 100 is complete control, read-out: Foxtail, Giant plant response rating); 60% with Kochia (Kochia scoparia) [5] (125 g ai/ha, preemergence, 0 to 100 scale where 0 is no effect and 100 is complete control, read-out: Kochia plant response rating); 0% in test [6] (125 g ai/ha, preemergence, 0 to 100 scale where 0 is no effect and 100 is complete control, read-out: Pigweed plant response rating). For the same compound, the pest or weed control at 125 g/ha was 60% in test [7]; 60% in test [8]; 90% in test [9]; 0% in test [11]; 60% in test [12]; 90% in [13]. In the test on Kochia (Kochia scoparia) [14], the pest or weed control at 125 g/ha was 30%. Besides, the pest or weed control at 500 g/ha in test [1] (500 g ai/ha, Preemergence, visual injury vs untreated controls after approximately 10 d, read-out: Ryegrass, Italian plant response rating (0 to 100 scale where 0 is no effect and 100 is complete control)) is 80%; in [2] (500 g ai/ha, Preemergence, visual injury vs untreated controls after approximately 10 d, read-out: Barnyardgrass plant response rating (0 to 100 scale where 0 is no effect and 100 is complete control)) it was 90%; in test [3] (500 g ai/ha, Preemergence, visual injury vs untreated controls after approximately 10 d, read-out: Ragweed plant response rating (0 to 100 scale where 0 is no effect and 100 is complete control)) it was 50%; in test [4] (500 g ai/ha, Preemergence, visual injury vs untreated controls after approximately 10 d, read-out: Foxtail, Giant plant response rating (0 to 100 scale where 0 is no effect and 100 is complete control)), 90%; with Kochia (Kochia scoparia) [5] (500 g ai/ha, Preemergence, visual injury vs untreated controls after approximately 10 d, read-out: Kochia plant response rating (0 to 100 scale where 0 is no effect and 100 is complete control)) it was 80%; in test [6] (500 g ai/ha, Preemergence, visual injury vs untreated controls after approximately 10 d, read-out: Pigweed plant response rating (0 to 100 scale where 0 is no effect and 100 is complete control)) it was 60%. Also, the plant injury at 125 g/ha was determined as 90% in the test with corn (Zea mays) and 30% in test [10].
